Legend:
[1] = system: HEC-1B xenograft tumor model; format: in vivo; settings: 10 mg/kg Q14D i.p.
Method: The in vivo efficacy was evaluated in tumor xenograft models in nude mice with established human tumor cell lines at the MTD and sub-MTD dosages. Tumor cells were cultivated according to ATCC protocols in recommended media contained 10% FCS. Cells were harvested for transplantation in a subconfluent (70%) state. The volume of implantation was 100 μl for mice. When the tumors were approximately in size of 25-50 mm^2, the animals were randomized to treatment and control groups and treatment was started. Treatment of each animal was based on individual body weight. The optimal formulation, application route and schedule were used for each compound (see table 2). Oral administration (p.o.) was carried out via a gastric tube. The oral application volumes were 10 ml/kg and the intravenous application volumes were 10 ml/kg. Tumor area (product of the longest diameter and its perpendicular) using a calliper. The animal body weight was monitored as a measure for treatment-related toxicity. Measurement of tumor area and body weight was performed 2-3 times weekly. […] Treatment responses were evaluated by means of the clinically-used RECIST criteria (complete response, partial response, stable disease and progressive disease) and response rates were calculated accordingly (RR=number of animals with complete and partial response).

[2] = system: MFE-280 xenograft tumor model; assay: In vivo efficacy in MFE-280 xenograft tumor model; design: species or system nude mice; settings: doxorubicin group
Method: The in vivo efficacy was evaluated in tumor xenograft models in nude mice with established human tumor cell lines at the MTD and sub-MTD dosages. Tumor cells were cultivated according to ATCC protocols in recommended media contained 10% FCS. Cells were harvested for transplantation in a subconfluent (70%) state. The volume of implantation was 100 μl for mice. When the tumors were approximately in size of 25-50 mm^2, the animals were randomized to treatment and control groups and treatment was started. Treatment of each animal was based on individual body weight. The optimal formulation, application route and schedule were used for each compound (see table 2). Oral administration (p.o.) was carried out via a gastric tube. The oral application volumes were 10 ml/kg and the intravenous application volumes were 10 ml/kg. Tumor area (product of the longest diameter and its perpendicular) using a calliper. The animal body weight was monitored as a measure for treatment-related toxicity. Measurement of tumor area and body weight was performed 2-3 times weekly. T/C ratios (Treatment/Control) were calculated with final tumor areas. Treatment responses were evaluated by means of the clinically-used RECIST criteria (complete response, partial response, stable disease and progressive disease) and response rates were calculated accordingly (RR=number of animals with complete and partial response).

[3] = dose not printed (i.p. Q14D per Table 2)

Structure (SMILES): COc1cccc2c1C(=O)c1c(O)c3c(c(O)c1C2=O)C[C@@](O)(C(=O)CO)C[C@@H]3O[C@H]1C[C@H](N)[C@H](O)[C@H](C)O1 [Doxorubicin]
- PD (progressive disease, number of tumors) [1]: 6
- Response rate [1]: 0%
- T/C area (Treatment/Control ratio, mean tumor areas) ([1]; study end): 0.56
- T/C weight (Treatment/Control ratio, final tumor weights) ([1]; study end): 0.48
- CR (%) ([2]; dose not given): 0%
- PD (%) ([2]; dose not given): 37.5%
- PR (%) ([2]; dose not given): 12.5%
- RR (%) ([2]; dose not given): 12.5%
- T/C (tumor area) [2, 3]: 0.51
- T/C (tumor weight) [2, 3]: 0.39

Reference: patent US20180042929A1, “USE OF SUBSTITUTED 2,3-DIHYDROIMIDAZO[1,2-C]QUINAZOLINES” (Bayer Pharma Aktiengesellschaft, priority 2015, published 2018)
